In one data set the test system is SKOV3 cells. The data set is described as follows: Cell mortality, viability, growth and cell cycle of SKOV3 cells (morphology, trypan blue exclusion, FACS of DNA content). Type of data set: cell-based, human. As for the experimental part:
(§1) Exponentially growing cells were exposed to CDDP for 2 hours at 37° C., in serum free medium. After exposure to the drug, the cell layers were rinsed and incubated in complete growth medium.
(§2) The siRNA duplexes were transfected according to the recommended procedure by using the Oligofectamine Reagent and Opti-MEM medium (INVITROGEN LIFE TECHNOLOGIES). 30-40% confluent cells were transfected in 25 cm^2 flasks with different concentrations of siXL1, siRNA Mcl-1 or siRNA control and incubated at 37° C., 5% CO2 for 4 hours. Next, 20% fetal bovin serum was added to reach a final concentration of 10% foetal bovin serum in the 25 cm^2 flask.
After treatment, detached cells were collected separately and adherent cells were dissociated by trypsin/EDTA. Adherent and detached cells were then pooled and centrifuged at 1500×g for 5 min before being fixed in 70% ethanol. The cells were then collected on a polylysine-coated glass slide by cytocentrifugation, before a 30 min room temperature incubation in a 1 μg/ml DAPI aqueous solution (BOEHRINGER MANNHEIM). Slides were thereafter extensively washed in distilled water and mounted in Mowiol (CALBIO-CHEM).
After treatment, detached cells were collected separately. Adherent cells were then harvested by trypsin/EDTA dissociation. Adherent and detached cells were then pooled and washed in PBS before being fixed in 70% ethanol and stored at −20° C. until analysis. Before flow cytometry analysis, the cells were washed in PBS and incubated for 30 min at room temperature in PBS in order to allow the release of low molecular weight (m.w.) DNA, characteristic of apoptotic cells. After a centrifugation at 4000 g for 10 min, the cell pellets were resuspended and stained with propidium iodide (PI) using the DNA Prep Coulter Reagent Kit (BECKMAN-COULTER) at a final concentration of 10^6 cells/ml.
Samples were analyzed using an EPICS XL flow cytometer (BECKMAN COULTER) equipped with an argon laser at 15 mW. PI-stained cells were analyzed using a 488 mn excitation. A 620 nm band pass filter was put on the red fluorescence of PI. Computerized gating was applied on the side and forward scatter to exclude very small debris and on pulse width and integral peak of red fluorescence to eliminate aggregates. All samples were analyzed at a flow rate lower than 100 events per second and with a sheath pressure of 30 psi.

Data set [1] deals with Bcl-XL protein. Nature of the data set: Western blot of Bcl-XL protein expression in tumour cell lines after siRNA transfection. It is filed as cell-based, human. On the procedure: SKOV3, OAW42, OAW42-R10, IGROV1 and IGROV1-R10 human ovarian adenocarcinoma cell lines, GL15 glioblastoma cell line, and NCI-H28 mesothelioma cell line were obtained from ECACC or ATCC. OAW42, OAW42-R10 cells were grown in DMEM (GIBCO-BRL) supplemented with 10% foetal calf serum (GIBCO-BRL), 2 mM Glutamax™ (GIBCO-BRL), 1 mM sodium pyruvate (GIBCO-BRL), 20 UI/L human recombinant insulin (LILLY), 33 mM sodium bicarbonate and 20 mM HEPES All the other cell lines were grown in RPMI 1640 medium (GIBCO-BRL) supplemented with 10% foetal calf serum (GIBCO-BRL), 2 mM Glutamax™ (GIBCO-BRL), 33 mM sodium bicarbonate and 20 mM HEPES. Cells were maintained at 37° C. in a 5% CO2 humidified atmosphere, and split twice a week by trypsinization.
as §1, §2
Cells were rinsed with ice cold PBS and lysed in 150 mM NaCl, 50 mM Tris-HCl pH 8, 1% Triton X100, 4 mM PMSF, 2 mM Aprotinin, 5 mM EDTA, 10 mM NaF, 10 mM NaPPi, 1 mM Na3VO4 for 30 min on ice. Lysates were clarified by centrifugation at 10000 g for 10 min at 4° C. and protein concentrations were determined using the Bradford assay (BIO-RAD). Equal amounts of total cellular protein (20 μg) were resolved in a Bis-tris-HCL buffered (pH 6.4) 4-12% polyacrylamide gel (NuPAGE® Novex® 4-12% Bis-tris gel, INVITROGEN) for 35 min at 200V and electrophoretically transferred on a PVDF membrane (MILLIPORE) for 75 min at 30V. The membrane was blocked for 1 hour at room temperature in T-TBS (132 mM NaCl, 20 mM Tris-HCl pH 7.6, 0.05% Tween 20) supplemented with 5% non-fat dry milk. The membrane was incubated for 1 hour at room temperature in T-TBS-milk with the following primary antibodies: anti-Bcl-XL/S (1:500, S18 SANTA-CRUZ BIOTECHNOLOGY), anti-PARP (1:1000, CELL-SIGNALING TECHNOLOGY), anti-caspase-3 (1:1000, BD BIOSCIENCES PHARMINGEN) anti-cleaved caspase-3 (1:1000, CELL-SIGNALING TECHNOLOGY), anti-alpha-tubulin (1:3000, SIGMA) and anti-Mcl-1 (1:750, S19 SANTA-CRUZ BIOTECHNOLOGY). After three washes with T-TBS, the membrane was incubated for 1 h at room temperature in T-TBS-milk with the adequate peroxidase conjugated secondary antibody (Anti-rabbit IgG, CELL-SIGNALING TECHNOLOGY, and anti-mouse IgG, AMERSHAM). After 3 washes with T-TBS and one with TBS, the immunoreactivity was detected by enhanced chemiluminescence (ECL kit, AMERSHAM).

The test system of data set [2] is Bcl-XL protein. The data set is described as follows: Immunohistochemical analysis of Bcl-XL protein in SKOV3 peritoneal tumour nodes of mice. The conditions noted are these: naked siXL1 5, 25 or 100 μg/kg, 3 days after injection. Type of data set: in vivo, human. As for the experimental part: […] […] The solution was quickly homogenized and left for 15 min at room temperature. It was injected intraperitoneally in mice as a 0.5 ml 5% glucose solution.
[…] Mice were killed 3 days after transfection and each organ (kidney, liver, spleen, pancreas, ovary, peritoneum, diaphragm, lung, heart and skeletal muscle) was washed with saline solution. Parts of each organs were either frozen in liquid nitrogen and stored at −80° C. for RT-PCR and western blot analysis, or formalin-fixed and paraffin-embedded for histological examination and immunohistochemical analysis.
Immunohistochemical staining was performed on paraffin-embedded material. To perform immunostaining, 4 μm-thick sections were dewaxed, rehydrated and treated 30 minutes by high-temperature-heating antigen retrieval technique in citrate buffer 0.1M pH6 to unmask epitopes. Sections were incubated 1 hour at room temperature with polyclonal antibody anti-Bcl-XL/S (S18) obtained from Santa Cruz (TEBU-BIO) and diluted 1:50. After washes, slides were incubated with Rabbit IgG Vectastain ABC Kit (VECTOR, ABCYS) according to the manufacturer instructions.

Setting [3] is: SKOV3 cells, 100 nM siXL1, FIG. 4.

Consider “siXL1: double-stranded siRNA blocking Bcl-XL expression; sense 5′-auuggugagucggaucgcatt-3′ (SEQ ID NO: 5), anti-sense 5′-ugcgauccgacucaccaautt-3′ (SEQ ID NO: 6) (sense AUUGGUGAGUCGGAUCGCATT; antisense UGCGAUCCGACUCACCAAUTT; chemistry not given here)”, for which the “cytotoxic effect on SKOV3 cells” value in the data set on SKOV3 cells (50 nM each siRNA, absence of cisplatin, FIG. 12) was “no cytotoxic effect”. For the same substance, the “cytotoxic effect of each siRNA” value in the data set with SKOV3 cells (SKOV3 cells, FIGS. 13 and 14) is “slight cytoxic effect”. Also, the “cell viability (trypan blue exclusion)” value with SKOV3 cells (SKOV3 cells, alone 150 nM or in combination 75 nM each, FIGS. 13 and 14) is “reduction of cell viability”. In the data set with SKOV3 cells (SKOV3 cells, cisplatin 5 or 20 μg/ml, siRNA 150 nM), the “cell death (morphology, FACS analysis of the cell cycle)” value is “moderate cell death by apoptosis”. In addition, in the data set on Bcl-XL protein [1] (SKOV3 cells), the optimal concentration is recorded as 150 nM and the “persistence of the siXL1 effect” value amounted to 96 h. Besides, in the data set on Bcl-XL protein [1] (SKOV3 cells, 25 nM, FIG. 4), the “effect on Bcl-XL protein expression at lower dose” value is “greatly reduced and delayed”. Moreover, in the data set on Bcl-XL protein [1] (setting [3]), the “time of maximum decrease of Bcl-XL protein expression” value came to 72 h and the “time of reappearance of Bcl-XL protein expression” value is at least 144 h. The “Bcl-XL protein expression 24 hours after transfection” value with Bcl-XL protein [1] (SKOV3 cells, 24 hours after siXL1 transfection) is on record as “reduced”. Further, the “effect of various concentrations on Bcl-XL protein expression” value with Bcl-XL protein [1] (SKOV3 cells, 72 h after transfection, FIG. 3) was “dose-dependent”. For the same substance, the “Bcl-XL protein expression 24 hours after exposure to cisplatin” value with Bcl-XL protein [1] (SKOV3 cells, 72 hours after siRNA transfection, cisplatin 5 and 20 μg/ml, FIG. 9) was “disappears almost completely”. For the same substance, the “Bcl-XL protein expression after 72 hours” value with Bcl-XL protein [1] (SKOV3 cells, 72 hours after transfection, FIG. 1C) is listed as “disappeared totally”. Moreover, in the data set with Bcl-XL protein [1] (SKOV3 cells, 144 hours after transfection, combination with 20 μg/ml cisplatin, FIG. 9), the “Bcl-XL protein expression 96 hours after cisplatin exposure” value is recorded as “reappears”. Also, in the data set on Bcl-XL protein [1] (ovarian carcinoma, glioblastoma or mesothelioma cells, 72 h after transfection, FIGS. 2A&B), the “Bcl-XL protein expression in various tumor cell lines” value is on record as “extinction”. Further, the “Bcl-XL labelling intensity in tumour nodes” value in the data set with Bcl-XL protein [2] is listed as “decreases as the siXL1 dose increases”.

(Values after US8193333B2, “Cancer therapy using Bcl-Xl-specific siNA” (Centre Regional de Lutte Contre le Cancer-Centre Francois …, priority 2006, dated 2012).)
